# Test results taken from patent US20240358672A1, “APPLICATION OF GENISTEIN AND ITS PHOSPHATE ESTER DERIVATIVE AND PHARMACEUTICAL COMPOSITION COMPRISING THE SAME” (National Taiwan University, priority 2023, published 2024).
# Like-named read-outs stand apart in the source and are kept apart here.
# Columns and labels:
# [1] = tested on: hiPSC-ECs; experiment: qPCR gene expression in hiPSC-ECs; type: cell-based, human; details: 48 hours
# [2] = tested on: C57BL/6J mice; experiment: Echocardiographic analysis of mice
# Description: (§1) FIG. 8A to 8C illustrate the effects of genistein and Δ^9-THC on cardiac contraction in vivo or in vitro experiments according to Example 9. […] After treatment exposure, the contractility, relaxation and peak force of EHT were measured using the Sony imaging platform. FIG. 8B: Same as the former, analysis of heart rate and contraction-relaxation (CR) interval (48 hours). […] Mice were anesthetized with 1%-2% isoflurane, and images were acquired in the parasternal long-axis (PLA) and parasternal short axis (PSA) on a Visualsonic Vevo 2100 platform. The ventricular (LV) dimensions were traced offline, and the ejection fraction (EF) was calculated using Simpson's biplane method of discs.
# (§2) The inventor used engineered heart tissues (EHTs) composed of hiPSC-ECs and hiPSC-derived cardiomyocytes (hiPSC-CMs) to interrogate the effects of genistein and Δ^9-THC on contractility in vitro.
# [3] = tested on: Apoe^−/− mice; experiment: Apoe−/− partial carotid artery ligation (PCAL) atherosclerosis model; type: in vivo, mouse; details: HFD 10 days
# From the text: FIG. 10A to 10C illustrate the effects of Δ^9-THC and genistein on the treatment of atherosclerosis in vivo using the Apoe^−/− mouse model according to Example 10. FIG. 10A: Gross images of carotid arteries after oil red O staining are shown (left panel). The scale bar represents 1 mm. A diagram of partial ligation of the carotid artery is shown (right panel). […] The right subclavian artery (RSA), right common carotid artery (RCA), and left subclavian artery (LSA) were unligated and remained patent. FIG. 10B: Carotid artery sections were counterstained with hematoxylin and eosin (H&E), and a representative slide was presented with scale bars at 100 μm (left panel). Oil red O staining of atherosclerotic plaques in cross-section of mouse carotid artery with scale bar at 100 μm. The atherosclerotic plaques were quantified (right panel). FIG. 10C: Carotid artery sections were immunostained with an anti-F4/80 antibody. […] Quantification of F4/80-positive area within carotid artery sections (top right). Carotid artery sections were immunostained with an anti-CD68 antibody. […] Quantification of CD68-positive area within carotid artery sections is shown (bottom right).
# Further, an Apoe^−/− mouse model was also employed to investigate the effects of Δ^9-THC and cotreatment with genistein on atherosclerosis. Partial carotid artery ligation (PCAL) was performed in Apoe^−/− mice at 10-16 weeks. […] All mice were fed a HFD for 10 days. At the end of the treatment protocol, the Apoe^−/− mice were euthanized and subjected to histological analysis. […] Macrophage recruitment was tested using the macrophage-specific F4/80 antibody and CD68 antibody. […] Consistent with the Ldlr^−/− model findings, the Apoe^−/− PCAL mouse model found increased plaque size and increased macrophage recruitment with Δ^9-THC, and genistein cotreatment ameliorated these indices of atherosclerosis in ligated carotid arteries.
# [4] = tested on: hiPSC-ECs; experiment: Western blot / immunofluorescence of p38 and NF-κB (p65) in hiPSC-ECs; details: 48 hours
# [5] = tested on: C57BL/6J mice; type: in vivo
# Description: (§3) FIG. 7A: Isometric tension recordings of isolated mice thoracic aortas were performed using a wire myograph. Vascular concentration-dependent relaxation was induced by acetylcholine (ACh) in pre-constricted mouse thoracic arteries. […] FIG. 7C: Luminex analysis of inflammatory cytokines in plasma of C57BL/6J mice treated with vehicle control, Δ^9-THC, or Δ^9-THC plus genistein. […] FIG. 7E: Effect of Δ^9-THC and genistein on NF-κB phosphorylation in mouse thoracic artery. Total cell lysates were prepared, and the expressions of phosphor-NF-κB were analyzed by ELISA (upper left). Superoxide dismutase (SOD) activity of serum from mouse (bottom left). The effect of Δ^9-THC and genistein on NF-κB phosphorylation in mouse thoracic artery tissues (n=5). Total cell lysates were prepared, and the expressions of NF-κB, phosphorylated NF-κB, and β-actin were analyzed by western blot analysis (right panel). FIG. 7F: The levels reduced glutathione (GSH), Oxidized glutathione (GSSG), Total glutathione (T-GSH) and GSH/GSSG in the serum samples of mice were detected. Plasma isolated from C57BL/6J mice (n=5) treated with vehicle control, Δ^9-THC, genistein, or their combination every day for 30 days was analyzed by the glutathione colorimetric assay kit (BioVision, K261).
# Genistein also rescued the oxidative stress protective-related gene expression (FIG. 7D). In addition, NF-κB phosphorylation and SOD expression in mouse serum were also attenuated with genistein (FIG. 7E). Δ^9-THC administration decreased circulating levels of the antioxidant glutathione, which was ameliorated with genistein cotreatment (FIG. 7F).
# [6] = tested on: mouse thoracic arteries; experiment: Wire myograph of isolated mouse thoracic aortas; type: in vivo, C57BL/6J mice
# Description: as §3
# [7] = tested on: engineered heart tissues (EHTs) composed of hiPSC-ECs and hiPSC-CMs; experiment: Engineered heart tissues (EHTs) contractility
# Description: as §1, §2
# [8] = 10 μM genistein with 5 μM Δ^9-THC
# [9] = single agent: Δ^9-THC 1 mg/kg i.p. or genistein 50 mg/kg p.o.
# [10] = Δ^9-THC 1 mg/kg plus genistein 50 mg/kg
smiles,measurement,setting,value
O=c1c(-c2ccc(O)cc2)coc2cc(O)cc(O)c12 [genistein],NOS2 and NOX1 expression,[1]; [8],salutatory effect
same,Δ^9-THC-induced TLR4 expression,[1]; [8],disrupted its expression
same,"cardiac structure or function (EF, HR, LVEDV, LVEDM)",[2]; cotreatment Δ^9-THC 1 mg/kg i.p. and genistein 50 mg/kg p.o.,did not affect cardiac structure or function
same,"cardiac structure or function (EF, HR, LVEDV, LVEDM)",[2]; [9],did not affect cardiac structure or function
same,CD68-positive area in ligated carotid artery,[3]; [10],reduced
same,F4/80-positive area in ligated carotid artery,[3]; [10],decreased
same,plaque size in ligated carotid artery (oil red O),[3]; [10],ameliorated the plaque size
same,Δ^9-THC-induced NF-κB phosphorylation,[4]; [8],attenuated NF-κB phosphorylation
same,Δ^9-THC-induced p38 phosphorylation,[4]; [8],decreased
same,Δ^9-THC-induced mRNA expressions of inflammation-related genes in mouse thoracic artery tissues,[5]; Δ^9-THC 1 mg/kg plus genistein 50 mg/kg or rimonabant 3 mg/kg,ameliorated
same,NF-κB phosphorylation in mouse thoracic artery,[5]; Δ^9-THC plus genistein,attenuated
same,SOD expression in mouse serum,[5]; Δ^9-THC plus genistein,attenuated
same,oxidative stress protective-related gene expression in thoracic artery tissues,[5]; Δ^9-THC plus genistein,rescued
same,"plasma IL-6, IL-3 and IL-10 (Luminex)",[5]; Δ^9-THC plus genistein cotreatment,significantly reduced
same,Δ^9-THC-decreased circulating glutathione,"[5]; Δ^9-THC plus genistein cotreatment, every day for 30 days",ameliorated
same,Δ^9-THC-induced endothelial dysfunction,[6]; [10],mitigated the effect
same,"contraction, relaxation, and peak force of EHTs",[7],no significant effect
same,Δ^9-THC effects on beat rate and contraction-relaxation interval,[7],did not attenuate these effects
"CCCCCc1cc(O)c2c(c1)OC(C)(C)[C@@H]1CCC(C)=C[C@@H]21 [Δ^9-THC, Δ^9-tetrahydrocannabinol]",TLR4 expression,[1]; 5 μM Δ^9-THC alone,induced TLR4 expression
same,expression of ROS-related genes NOX1 and NOS2,[1]; 5 μM Δ^9-THC alone,upregulated
same,"mRNA expression of antioxidant-related genes (SOD1, SOD2, CAT, GPX1)",[1]; 5 μM Δ^9-THC alone,decreased mRNA expression
same,expression of I kappa B (NFKBIA),[1]; Δ^9-THC alone,inhibited
same,expression of proinflammatory cytokines and chemokines,[1]; Δ^9-THC alone,increased
same,"cardiac structure or function (EF, HR, LVEDV, LVEDM)",[2]; [9],did not affect cardiac structure or function
same,CD68-positive area in ligated carotid artery,[3]; Δ^9-THC 1 mg/kg,significantly increased
same,F4/80-positive area in ligated carotid artery,[3]; Δ^9-THC 1 mg/kg,significantly increased
same,plaque area in ligated carotid artery (oil red O),[3]; Δ^9-THC 1 mg/kg,increased
same,p65 (NF-κB) phosphorylation,[4]; 5 μM Δ^9-THC alone,caused p65 phosphorylation
same,phosphorylation of p38,[4]; 5 μM Δ^9-THC alone,increased phosphorylation of p38
same,nuclear translocation of NF-κB (p65),[4]; 5 μM Δ^9-THC,induced
same,"plasma IL-6, IL-3 and IL-10 (Luminex)",[5]; Δ^9-THC alone,elevated
same,circulating levels of the antioxidant glutathione,"[5]; Δ^9-THC alone, every day for 30 days",decreased
same,endothelial function (ACh-induced relaxation),[6]; Δ^9-THC 1 mg/kg,induced endothelial dysfunction
same,beat rate of EHTs,"[7]; 5 μM Δ^9-THC, 48 hours",decreased beat rate
same,contraction-relaxation interval of EHTs,"[7]; 5 μM Δ^9-THC, 48 hours",increased the contraction-relaxation interval
